Values of other authors, collected in US20120141398A1, “HAIR DYE CONTAINING ONE OR MORE EDIBLE OR COSMETIC COLORS” (priority 2010, published 2012).

Experiments:
large rat = conditions: text b11, species not given

Structure (SMILES) | Ames Test (mutagenicity) (Salmonella typhimurium) | other results
COc1ccc(N)cc1N [2,4 diaminoanisole] | + | –
CCc1ccc(N)cc1N [2,4-diamino-ethylbenzene] | + | –
Nc1ccccc1O [2-Aminophenol] | – | Median Lethal Dose/Kg (small rat; small rat): 800 g (small rat) g/Kg
Nc1cc([N+](=O)[O-])ccc1O [2-amino-4-nitrophenolate] | + | –
Nc1ccc(OCCO)cc1[N+](=O)[O-] [4-amino-3-nitro-phenoxyethanol] | + | –
Oc1cccc(O)c1 [Resorcinol] | – | median lethal dose (small rat; rat, in vivo): 200 mg/kg
Nc1cccc(N)c1 [m-phenylenediamine] | + | –
Nc1ccccc1N [o-phenylenediamine] | + | –
Nc1ccc(N)cc1 [p-phenylenediamine] | + | median lethal dose (large rat): 80 mg/kg
